Source: the supplement of paper PMC11451515

Assays:
Assay in all cases: AUC of viability dose-response curve (% viability x log10 dose units); higher = less sensitive
Settings in all cases: 48 h
NOMO1 = system: NOMO1
Method in brief: (§1)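 Leukemia cells adapted to each medium were seeded at 500 or 1000 cells/well in 1536-well plates and dosed with library compounds in DMSO at 11 threefold doses from 47 μM to 0.79 nM for 48 h at 37°C. CellTiter-Glo One luminescence was normalised per plate to DMSO and cell-free wells, then fitted with a four-parameter log-logistic model over log10 doses. Area under the curve was taken from this fit by the trapezoidal rule, with curves above full viability scaled and curves failing quality control removed.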

P12-Ichikawa = system: P12-Ichikawa
Method in brief: as §1

SEM cells = system: SEM cells
Method in brief: as §1

[1] = RPMI 5 mM glucose + 10% dialyzed FBS

Row | SMILES | AUC of viability dose-response curve (NOMO1; HPLM + 10% dialyzed FBS) | AUC of viability dose-response curve (NOMO1; RPMI 5 mM glucose + 10% FBS) | AUC of viability dose-response curve (NOMO1; [1]) | AUC of viability dose-response curve (P12-Ichikawa; HPLM + 10% dialyzed FBS) | AUC of viability dose-response curve (P12-Ichikawa; RPMI 5 mM glucose + 10% FBS) | AUC of viability dose-response curve (P12-Ichikawa; [1]) | AUC of viability dose-response curve (SEM cells; HPLM + 10% dialyzed FBS) | AUC of viability dose-response curve (SEM cells; RPMI 5 mM glucose + 10% FBS) | AUC of viability dose-response curve (SEM cells; [1])
1 | CNC(=O)c1ccc2cc(C3(O)CCn4cncc43)ccc2c1 (stereo unspecified) | 458 | 456 | 456 | 453 | 469 | 453 | 441 | 450 | 452
2 | Cc1coc2c1C(=O)C(=O)c1c-2ccc2c(C)cccc12 | 443 | 451 | 460 | 454 | 476 | 446 |  |  | 
3 | COC\1=C(/OC)C(=O)\C(=C(C)/C1=O)CCCCCCCCCCO | 461 | 464 | 468 | 471 | 456 | 459 | 460 | 471 | 456
4 | O=C1c2ccccc2-[n+]2ccc3c([nH]c4ccccc43)c21 | 385 | 398 | 390 | 403 | 405 | 407 | 291 | 332 | 311
5 | COCC1(CO)C(=O)C2CCN1CC2 (stereo unspecified) | 435 | 446 | 462 | 413 | 414 | 421 |  |  | 
6 | Cc1ccccc1C(=O)c1ccc(Nc2ccc(Br)cc2N)cc1Cl | 467 | 466 | 455 | 454 | 461 | 441 |  |  | 
7 | Cc1onc(-c2ccccc2Cl)c1C(=O)N[C@@H]1C(=O)N2[C@@H]1SC(C)(C)[C@@H]2C(=O)[O-] | 455 | 437 | 424 | 469 | 451 | 456 | 402 | 435 | 464
8 | C[C@](O)(CS(=O)(=O)c1ccc(F)cc1)C(=O)Nc1ccc(C#N)c(C(F)(F)F)c1 | 443 | 460 | 470 | 472 | 463 | 470 | 461 | 433 | 444
9 | Clc1ccc(-c2nc3sccn3c2/C=N/OCc2ccc(Cl)c(Cl)c2)cc1 | 445 | 451 | 461 | 448 | 463 | 454 | 453 | 430 | 455
10 | CN[C@H]1CCC2=CC(=C(OC)C(=C2C/3=C/C=C(OC)\C(=O)/C=C13)OC)OC | 205 | 174 | 206 | 151 | 147 | 158 | 159 | 144 | 148
11 | O=C(Nc1cc(Cl)cc2c1[nH]c1cnccc12)c1cccnc1 | 467 | 477 | 471 | 471 | 461 | 457 | 468 | 452 | 437
12 | COc1ccc([C@@H]2CC(=O)c3c(O)cc(O[C@@H]4O[C@H](CO[C@@H]5O[C@@H](C)[C@H](O)[C@@H](O)[C@H]5O)[C@@H](O)[C@H](O)[C@H]4O)cc3O2)cc1O | 477 | 457 | 468 | 467 | 468 | 473 | 465 | 469 | 469
13 | Cc1nc2cnc3ccc(C#Cc4cccnc4)cc3c2n1-c1ccc(C(C)(C)C#N)cc1 | 264 | 259 | 268 | 314 | 251 | 255 |  |  | 
14 | CCOC(=O)N1CCN(/[N+]([O-])=N/Oc2ccc([N+](=O)[O-])cc2C#N)CC1 | 390 | 383 | 382 | 328 | 324 | 328 | 331 | 327 | 331
15 | NC\1=N\C(=O)N(\C=C1)[C@@H]2O[C@H](CO)[C@@H](O)[C@@H]2O | 186 | 201 | 154 | 38 | 25.6 | 39.2 |  |  | 
16 | C[C@@H](Oc1cc(-c2cnn(C3CCNCC3)c2)cnc1N)c1c(Cl)ccc(F)c1Cl | 391 | 429 | 424 | 419 | 415 | 400 |  |  | 
17 | CC[C@H](/C=C/[C@@H](C)[C@H]1CC[C@H]2[C@@H]3CC=C4C[C@@H](O)CC[C@]4(C)[C@H]3CC[C@]12C)C(C)C | 427 | 434 | 421 | 456 | 449 | 429 | 438 | 458 | 463
18 | CC(C)CNc1ccnc(NCc2csc(-c3ccccc3)n2)n1 | 414 | 456 | 446 | 440 | 436 | 442 | 447 | 447 | 458
19 | C[C@]12COC(=O)C[C@@H]1CC[C@@H]1[C@@H]2CC[C@@]2(C)[C@H]1CC[C@]2(C)O | 472 | 443 | 443 | 457 | 463 | 471 | 451 | 457 | 447
20 | CC[S+](=O)([O-])c1cccc(-c2cc(C(=O)NC3CCN(C)CC3)c(C)c3[nH]c4ncc(C)cc4c23)c1 | 354 | 385 | 359 | 298 | 290 | 320 | 312 | 285 | 297
21 | COc1ccc([S+](=O)([O-])N(C(C)=O)c2ccccc2/C=C/c2cc[n+]([O-])cc2)cc1 | 351 | 352 | 356 | 353 | 345 | 370 | 352 | 342 | 351
22 | C[C@H]1COC2=C3N1\C=C(C(O)=O)/C(=O)C3=CC(=C2N4CCN(C)CC4)F | 426 | 454 | 441 | 427 | 429 | 416 | 398 | 373 | 420
23 | CC(C)N[C@@H]1CCn2c(=O)[nH]c3cccc(c32)[C@H]1O | 426 | 460 | 424 | 459 | 437 | 457 | 463 | 465 | 473
24 | CN1CCN(C2=Nc3cc(Cl)ccc3Nc3ccccc32)CC1 | 463 | 471 | 470 | 477 | 472 | 471 | 459 | 428 | 452

Row | SMILES | AUC of viability dose-response curve (NOMO1; HPLM + 10% dialyzed FBS) | AUC of viability dose-response curve (NOMO1; RPMI 5 mM glucose + 10% FBS) | AUC of viability dose-response curve (NOMO1; [1]) | AUC of viability dose-response curve (P12-Ichikawa; HPLM + 10% dialyzed FBS) | AUC of viability dose-response curve (P12-Ichikawa; RPMI 5 mM glucose + 10% FBS) | AUC of viability dose-response curve (P12-Ichikawa; [1]) | AUC of viability dose-response curve (SEM cells; HPLM + 10% dialyzed FBS) | AUC of viability dose-response curve (SEM cells; RPMI 5 mM glucose + 10% FBS) | AUC of viability dose-response curve (SEM cells; [1])
25 | C[C@](Cc1c[nH]c2ccccc12)(NC(=O)OC1C2CC3CC(C2)CC1C3)C(=O)NC[C@H](NC(=O)CCC(=O)O)c1ccccc1 (stereo partly specified) | 455 | 413 | 435 | 469 | 461 | 456 | 447 | 433 | 430
26 | C[C@@]12C(=O)OC(=O)[C@@]1(C)C1CCC2O1 | 391 | 371 | 392 | 407 | 405 | 407 | 400 | 392 | 377
27 | CC1=C(C)C(=O)C(C(CCCCCC(=O)O)c2ccccc2)=C(C)C1=O (stereo unspecified) | 334 | 293 | 318 | 387 | 414 | 362 | 301 | 301 | 303
28 | OC(c1cc(C(F)(F)F)nc2c(C(F)(F)F)cccc12)C1CCCCN1 (stereo unspecified) | 447 | 453 | 452 | 468 | 458 | 473 | 455 | 453 | 455
29 | CN(C)[S+](=O)([O-])c1ccc2c(c1)C(=Cc1cc3c([nH]1)CCCC3)C(=O)N2 | 467 | 453 | 455 | 467 | 464 | 468 | 462 | 462 | 459
30 | CC1(C)O[C@@H]2C[C@H]3[C@@H]4C[C@H](F)C5=CC(=O)C=C[C@]5(C)[C@@]4(F)[C@@H](O)C[C@]3(C)[C@]2(C(=O)CO)O1 | 460 | 460 | 457 | 324 | 303 | 272 | 305 | 314 | 291
31 | C[C@H]1C[C@@H]2[C@H](CC[C@@]3(C)[C@H]2CC[C@]3(OC(C)=O)C(C)=O)[C@@]\4(C)CCC(=O)\C=C14 | 471 | 472 | 458 | 464 | 446 | 442 | 417 | 433 | 425
32 | CC[C@H](NC1=C2N=C[NH]C2=NC=N1)C/3=N/C4=C(C(=CC=C4)F)C(=O)N3C5=CC=CC=C5 | 433 | 450 | 432 | 436 | 395 | 401 | 411 | 430 | 442
33 | COc1cc(OC2CCN(C)CC2)ccc1Nc1ncc2c(n1)n(C1CCCC1)c(=O)n2C | 427 | 373 | 393 | 408 | 380 | 363 | 326 | 346 | 324
34 | Cc1cnn(C)c1C(=O)Nc1cc(Nc2ccc3c(/C=C/c4ccccn4)n[nH]c3c2)ccc1F | 422 | 460 | 454 | 424 | 449 | 441 | 343 | 311 | 330
35 | CCN(CC)CCCCNc1ncc2cc(-c3cc(OC)cc(OC)c3)c(NC(=O)NC(C)(C)C)nc2n1 | 388 | 459 | 444 | 449 | 406 | 404 | 400 | 393 | 391
36 | CC(C)c1ccc2c(c1)c(SC(C)(C)C)c(CC(C)(C)C(=O)[O-])n2Cc1ccc(Cl)cc1 | 452 | 436 | 403 | 457 | 445 | 423 | 473 | 456 | 455
37 | N[S+]([O-])(=O)C1=C(Cl)C=C2\N=C/N[S+]([O-])(=O)C2=C1 | 465 | 470 | 475 | 459 | 456 | 468 | 380 | 426 | 418
38 | CC(C)C1NC(=O)C(NC(=O)C2=C3\N=C\4/C(=C(C)\C(=O)\C(=C4C(=O)NC5C(C)OC(=O)C(C(C)C)N(C)C(=O)CN(C)C(=O)C6CCCN6C(=O)C(NC5=O)C(C)C)N)OC3=C(C)C=C2)C(C)OC(=O)C(C(C)C)N(C)C(=O)CN(C)C(=O)C7CCCN7C1=O (stereo unspecified) | 27.9 | 28.1 | 23 | 31.2 | 24.5 | 38 | 26.3 | 20.8 | 23.4
39 | OC[C@@H](O)[C@@H](O)[C@H](O)[C@@H](O)CO | 465 | 472 | 445 | 452 | 453 | 449 | 401 | 472 | 452
40 | c1ccc2[nH]c(-c3cscn3)nc2c1 | 452 | 474 | 474 | 446 | 470 | 461 | 439 | 419 | 445
41 | O=C(C=CC#Cc1cccc(N[S+](=O)([O-])c2ccccc2)c1)NO | 367 | 374 | 371 | 353 | 345 | 346 | 354 | 358 | 352
42 | FC1=CC=C(C=C1)N2/C=C\C=C(C(=O)NC3=CC=C(OC4=C5C=C[NH]C5=NC=C4)C(=C3)F)/C2=O | 445 | 456 | 459 | 465 | 459 | 466 |  |  | 
43 | CC(C)c1nc(CN(C)C(=O)N[C@H](C(=O)N[C@@H](Cc2ccccc2)C[C@H](O)[C@H](Cc2ccccc2)NC(=O)OCc2cncs2)C(C)C)cs1 |  |  |  | 425 | 411 | 396 | 410 | 429 | 427
44 | O=C1[C@H](Cc2ccc(O)cc2)N2C(=O)CCN(C(=O)NCc3ccccc3)[C@H]2CN1Cc1cccc2ccccc12 |  |  |  | 404 | 375 | 361 | 334 | 384 | 363
45 | Cn1cnc2c(F)c(Nc3ccc(Br)cc3F)c(C(=O)NOCCO)cc21 |  |  |  |  |  |  | 392 | 382 | 363
46 | CC(C)(C#N)c1cc(Cn2cncn2)cc(C(C)(C)C#N)c1 |  |  |  | 466 | 456 | 442 |  |  | 
47 | S=C(NCc1ccc2c(c1)OCO2)N1CCN(c2ncnc3c2oc2ccccc23)CC1 | 416 | 438 | 445 | 406 | 387 | 389 |  |  | 
